The source of these data is patent US7734426B2 (priority 1999, dated 2010).

Entries after “also recorded” stand apart in the source; their conditions may differ. Where no end group is shown, it is not given here.

The subject of the first assay is hippocampal interneurons. To be noted: cited from earlier work.
In the case of “CCK-8S (DYMGWMDF; not fully specified; UniProt P06307 96-103, looked up)”, the “effect on action potential frequency / currents” value is given as “increased action potential frequency or generated inward currents”.

Another assay deals with CA1 region of hippocampal slices. The settings on record: cited from earlier work.
As for `O=CC[C@@H](O)[C@H](O)[C@H](O)CO` [2-DG, 2-deoxy-D-glucose], the “effect on synaptic transmission” value is recorded as “reversibly suppresses synaptic transmission”.

The test system of a further assay is CNS stem cells. The settings on record: cited from earlier work.
With platelet-derived growth factor [PDGF], the “neuronal differentiation, % of the cells” value is recorded as 90%.

The subject of a further assay is NG-108-15 Cells. It counts as cell-based.
Conditions: not given
With `N=C(N)NC(=O)c1nc(Cl)c(N)nc1N` [amiloride], the Effect result was “L-type Ca^2+ channel”, the “Onset Time” value was less than 60 s and the inhibit repetitive firing result is “amiloride*”.
With `C=C(C=O)C[C@@H]1C[C@H](O)[C@]2(C)O[C@@H]3C[C@@H]4O[C@@H]5C[C@]6(C)O[C@]7(C)CC[C@@H]8O[C@@H]9C[C@]%10(C)O[C@@H]%11C(C)=CC(=O)O[C@H]%11C[C@H]%10O[C@H]9C[C@@H](C)[C@H]8O[C@H]7C[C@H]6O[C@H]5C/C=C\[C@H]4O[C@H]3C[C@H]2O1` [brevetoxin], the Effect result is recorded as “Na^+ channel”, the “Onset Time” value is less than 60 s and the inhibit repetitive firing entry is given as “brevetoxin*”.
`C[N+](C)(C)CCOC(N)=O` [carbachol]: the Effect entry is listed as “muscarinic receptor”, the “Onset Time” value was less than 60 s and the inhibit repetitive firing result is “carbachol*”.
For `COC(=O)C1=C(C)NC(C)=C(C(=O)OC)C1c1ccccc1[N+](=O)[O-]` [nifedipine], the inhibit repetitive firing result is given as “nifedipine*”.
For the compound `C[C@@H]1O[C@@H](O[C@H]2C[C@@H](O)[C@]3(CO)[C@H]4[C@H](O)C[C@]5(C)[C@@H](C6=CC(=O)OC6)CC[C@]5(O)[C@@H]4CC[C@]3(O)C2)[C@H](O)[C@H](O)[C@H]1O` [ouabain], the Effect entry was “Na^+—Ca^2+ pump; also recorded: inhibition”, the “Onset Time” value was less than 60 s and the inhibit repetitive firing entry was “ouabain*”.
For `C=C[C@H]1C[N@@]2CC[C@H]1C[C@H]2[C@H](O)c1ccnc2ccc(OC)cc12` [quinine], in that order: “non-specific K^+ channel”, less than 60 s and “quinine*”.
Turning to `NC1=N[C@H](O)[C@H]2[C@H]3O[C@]4(O)O[C@@H]([C@@H](O)[C@@]2(N1)[C@@H]4O)[C@]3(O)CO` [tetrodotoxin], the Effect result was “Na^+ channel”, the “Onset Time” value is less than 60 s, the “effect on the AP” value was “affected the AP” and the inhibit repetitive firing result was “tetrodotoxin*”.
For `COc1ccc(CCN(C)CCCC(C#N)(c2ccc(OC)c(OC)c2)C(C)C)cc1OC` (stereo not drawn) [verapamil], the Effect entry is “L-type Ca^2+ channel”, the “Onset Time” value is less than 60 s and the inhibit repetitive firing result is on record as “verapamil*”.
For Charybdotoxin, in that order: “Kca “BK”-type channel”, less than 60 s and “Charybdotoxin*”.

Another assay deals with CA1 pyramidal cells in hippocampal slices. The settings on record: cited from earlier work.
In the case of `C[N+](C)(C)CCOC(N)=O` [carbachol], the “changes in the action potential” value was “several reversible changes in the action potential”.
